Legend:
[1] = test system: H1975 (non-small cell lung cancer); experiment: Transplanted tumor in nude mice, further H1975 model; type: in vivo, nude mice (BALB/c); details: 6.7, 13.4, 20.1 mg/kg/day orally for 21 days
Excerpt: (§1) Furthermore, more pharmacological models of tumor cell lines in nude mice were utilized to validate the inhibitory effects of compound Ie. The test method was specifically described as follows: H1975, A549, HCC827, A431, N87, MDA-MD-468 and CAL27 tumor cells respectively were inoculated into nude mice (BALB/c, male, 5-6 weeks of age), and when the mean tumor volume reaches 150 mm^3 mice was randomized into groups. The H1975 tumor model in nude mice includes one positive control group and three dosage groups of compound Ie (6.7 mg/kg/day, 13.4 mg/kg/day, and 20.1 mg/kg/day. The A549 tumor model in nude mice includes one positive control group, two dosage groups of compound Ie (10 mg/kg/day, 20 mg/kg/day), and one dosage group of Docetaxel (12 mg/kg/day). The HCC827 tumor model in nude mice includes one positive control group, two dosage groups of compound Ie (0.5 mg/kg/day, 2.5 mg/kg/day), and one dosage group of Erlotinib (12.5 mg/kg/day). The A431 tumor model in nude mice includes one positive control group, two dosage groups of compound Ie (2.5 mg/kg/day, 5 mg/kg/day), and one dosage group of Erlotinib (50 mg/kg/day). […] The tumor size and body weight of nude mice were recorded twice weekly from the first day of administration. The tumor volume was calculated using formula (1×w^2), wherein 1 and w respectively represents the maximum and minimum size in each measurement. […]

[2] = test system: MDA-MD-468 (breast cancer); experiment: Transplanted tumor in nude mice, MDA-MD-468 model; type: in vivo, nude mice (BALB/c)
Excerpt: as §1

[3] = test system: A549 (non-small cell lung cancer); experiment: Transplanted tumor in nude mice, A549 model; type: in vivo, nude mice (BALB/c)
Excerpt: as §1

[4] = test system: HCC827 (non-small cell lung cancer); experiment: Transplanted tumor in nude mice, HCC827 model; type: in vivo, nude mice (BALB/c)
Excerpt: as §1

[5] = test system: H1975 human non-small cell lung cancer tumor cells; experiment: Transplanted tumor in nude mice, initial H1975 test; type: in vivo, nude mice (BALB/c)
Protocol: H1975 human non-small cell lung cancer tumor cells were inoculated into 18 nude mice (BALB/c, male, 5-6 weeks of age), and when the mean tumor volume reaches 150 mm^3 the nude mice were randomized into three groups, including: control group (5 nude mice), 20 mg compound Ie/kg/day dose group (8 nude mice) and 75 mg Gefitinib/kg/day (5 nude mice). Test compounds were continuously administrated orally for 21 days. Tumor size and body weight of nude mice were recorded twice weekly from the first day of administration. […] was calculated using the formula (1×w^2), wherein 1 and w respectively represents the maximum and minimum size in each measurement. The change relation of mean tumor volume with the days after tumor transplantation was graphed according to the calculation results.

EGFR^L858R/T790M = EGFR^L858R/T790M (Homo sapiens, UniProt P00533, L858R/T790M); experiment: Caliper Mobility Shift Assay, double mutant EGFR kinase; type: biochemical; details: read-out: Inhibition of Kinase Activity (IC50, nM) EGFR^L858R/T790M
EGFR^L858R/T790M, sequence (P00533 25-1210 T790M/L858R): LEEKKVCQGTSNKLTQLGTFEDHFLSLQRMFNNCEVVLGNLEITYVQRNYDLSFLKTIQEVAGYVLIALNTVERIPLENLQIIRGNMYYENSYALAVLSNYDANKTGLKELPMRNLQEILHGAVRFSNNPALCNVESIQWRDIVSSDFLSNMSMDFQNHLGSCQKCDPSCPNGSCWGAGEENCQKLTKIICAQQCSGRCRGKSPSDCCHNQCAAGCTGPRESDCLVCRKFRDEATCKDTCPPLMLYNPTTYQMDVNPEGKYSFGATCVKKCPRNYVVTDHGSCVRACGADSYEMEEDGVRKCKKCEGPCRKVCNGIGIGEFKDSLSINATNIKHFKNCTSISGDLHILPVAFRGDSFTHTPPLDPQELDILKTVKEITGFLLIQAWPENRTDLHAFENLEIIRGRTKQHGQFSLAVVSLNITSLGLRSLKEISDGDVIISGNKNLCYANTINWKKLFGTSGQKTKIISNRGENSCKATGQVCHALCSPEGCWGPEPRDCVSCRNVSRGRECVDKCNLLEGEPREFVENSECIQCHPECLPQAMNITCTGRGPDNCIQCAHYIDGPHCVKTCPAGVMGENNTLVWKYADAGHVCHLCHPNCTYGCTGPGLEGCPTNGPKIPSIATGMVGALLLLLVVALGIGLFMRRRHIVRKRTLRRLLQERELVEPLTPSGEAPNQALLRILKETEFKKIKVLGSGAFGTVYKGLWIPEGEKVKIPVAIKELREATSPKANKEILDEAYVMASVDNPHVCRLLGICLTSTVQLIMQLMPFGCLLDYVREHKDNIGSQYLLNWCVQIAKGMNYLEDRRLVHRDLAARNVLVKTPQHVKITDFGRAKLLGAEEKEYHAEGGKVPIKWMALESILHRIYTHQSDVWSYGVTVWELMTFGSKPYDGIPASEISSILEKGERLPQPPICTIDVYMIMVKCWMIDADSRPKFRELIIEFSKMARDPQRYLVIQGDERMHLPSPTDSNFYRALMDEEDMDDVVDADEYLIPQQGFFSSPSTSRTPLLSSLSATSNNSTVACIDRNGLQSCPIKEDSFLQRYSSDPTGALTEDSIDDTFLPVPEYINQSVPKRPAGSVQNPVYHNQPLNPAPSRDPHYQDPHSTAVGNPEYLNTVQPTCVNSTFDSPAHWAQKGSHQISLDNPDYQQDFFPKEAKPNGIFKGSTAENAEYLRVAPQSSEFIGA
Protocol: Half maximal inhibitory concentration IC50 (the concentration of a compound that is required for 50% inhibition of the activity of an enzyme) was tested based on an immobilized enzyme mixing with a specific substrate and the test compounds in different concentrations. The used test method was Caliper Mobility Shift Assay. […] […].
According to the same test method, the inhibitory effects of the compound of Formula Ie on mutant EGFR kinases were tested, including single mutant EGFR^LS58R, EGFR^T790M and double mutant EGFR^L858R/T790M kinases.

[6] = Long-term toxicity experiment (28 days) in rats; type: in vivo; details: for toxicity reaction: po
Protocol: Experiment Animals: rats, male, 6-8 weeks of age, body weight: 180-250 g; dogs, male, about 24 months, body weight: 7-10 kg.
Preparation of sample: in rat's experiments the mixed formulation powder of the compound Ie was formulated into 0.1, 0.3 and 1 mg/mL homogeneous suspension for use; administration route: oral administration; […]. In dog's experiments the tablets of compound Ie were fed to dogs. […].
Sample collection: blood was collected at the time points of 1, 10, 20 and 28 days respectively, about 120-200 μL whole blood was collected from 3 animals at each time point. Blood was collected at 1 h, 4 h, 8 h and 24 h after administration.
Sample analysis: the collected samples were detected by LC-MS/MS, and the instrument model was SHIMADZU20 A-API4000.
Pharmacokinetic data analysis: the obtained plasma concentration data were fitted and calculated using WinNolin according to non-compartment model.

A431(EGFR) = experiment: Transplanted tumor in nude mice, A431 model; type: in vivo, nude mice (BALB/c)
Excerpt: as §1

N87(gastric cancer) = experiment: Transplanted tumor in nude mice, N87 model; type: in vivo, nude mice (BALB/c)
Excerpt: as §1

[7] = 5, 10 mg/kg/day orally for 21 days

## CN(C)C/C=C/C(=O)Nc1cc2c(Nc3ccc(F)c(Cl)c3)ncnc2cc1OC(F)F [Compound Ie]
[1]
  inhibitory and therapeutic effects on H1975 tumor model: strong inhibitory effects and therapeutic effects
[2]; [7]
  inhibitory and therapeutic effects on MDA-MD-468 tumor model: strong inhibitory effects and therapeutic effects
[2]; versus Docetaxel (12 mg/kg/week) and Afatinib (30 mg/kg/day)
  inhibitory effects on tumor cell growth compared with other drugs, MDA-MD-468 model: stronger inhibitory effects
[3]; 10, 20 mg/kg/day orally for 21 days
  inhibitory and therapeutic effects on A549 tumor model: strong inhibitory effects and therapeutic effects
[3]; versus Docetaxel (12 mg/kg/day)
  inhibitory effects on tumor cell growth compared with other drugs, A549 model: stronger inhibitory effects
[4]; 0.5, 2.5 mg/kg/day orally for 21 days
  inhibitory and therapeutic effects on HCC827 tumor model: strong inhibitory effects and therapeutic effects
[4]; versus Erlotinib (12.5 mg/kg/day)
  inhibitory effects on tumor cell growth compared with other drugs, HCC827 model: stronger inhibitory effects
[5]; H1975 tumor model, 20 mg compound Ie/kg/day orally for 21 days
  T/C %: 59%
[5]; compound Ie 20 mg/kg/day, Gefitinib 75 mg/kg/day, orally for 21 days
  therapeutic effect on H1975 tumor model: good therapeutic effect
EGFR^L858R/T790M
  IC50: 11 nM
[6]; rat, in vivo
  reversibility of toxicity reaction after drug withdrawal: reversible
[6]; rat, in vivo, 1 mg/kg
  toxicity reaction: no toxicity reaction
[6]; rat, in vivo, 3 mg/kg
  toxicity reaction: no toxicity reaction
[6]; rats, oral, 28 days
  AUC relative to Afatinib in the same dosage: about 5 times
[6]; rats, 1, 3 and 10 mg/kg groups
  time after drug withdrawal until weight close to control group: 5 to 6 days
[6]; rats, compound Ie 1, 3 and 10 mg/kg groups
  weight recovery after drug withdrawal: regain weight very quickly
A431(EGFR); 2.5, 5 mg/kg/day orally for 21 days
  inhibitory and therapeutic effects on A431 tumor model: strong inhibitory effects and therapeutic effects
A431(EGFR); versus Erlotinib (50 mg/kg/day)
  inhibitory effects on tumor cell growth compared with other drugs, A431 model: stronger inhibitory effects
N87(gastric cancer); [7]
  inhibitory and therapeutic effects on N87 tumor model: strong inhibitory effects and therapeutic effects
N87(gastric cancer); versus Lapatinib (90 mg/kg/day, twice daily)
  inhibitory effects on tumor cell growth compared with other drugs, N87 model: stronger inhibitory effects

— patent US20150065709A1, “Aminoquinazoline Derivative And Use Thereof In Preparing Anti-Malignant Tumor Medicament” (METABOMICS, INC, priority 2012, published 2015)
